The values that follow come from US12391679B2, “Benzamide-substituted bicyclic imidazo- and pyrazolo-fused -pyridine, -pyrimide, and -pyridazine compounds for treatment of inflammatory diseases” (ONCO3R Therapeutics BV, priority 2019, dated 2025).

SMILES strings stand for the structures.

Experiment [1] deals with T1, SIK3 (Homo sapiens, UniProt Q9Y2K2).
T1 construct: purchased SignalChem S12-11G-100
Briefly: ADP-Glo kinase assay, SIK3. It is filed as biochemical. The essentials:
(§1)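 Each SIK isoform is incubated with substrate and ATP for 2 h at room temperature, after which residual ATP is depleted and the ADP formed is quantified by luminescence.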
A general note: ADP-Glo turns the ADP formed in a reaction into a luminescent signal.

For experiment [2], the target named is T2, SIK1 (Homo sapiens, UniProt P57059).
T2 construct: purchased Carna Biosciences 02-131
T2 sequence (P57059 whole entry): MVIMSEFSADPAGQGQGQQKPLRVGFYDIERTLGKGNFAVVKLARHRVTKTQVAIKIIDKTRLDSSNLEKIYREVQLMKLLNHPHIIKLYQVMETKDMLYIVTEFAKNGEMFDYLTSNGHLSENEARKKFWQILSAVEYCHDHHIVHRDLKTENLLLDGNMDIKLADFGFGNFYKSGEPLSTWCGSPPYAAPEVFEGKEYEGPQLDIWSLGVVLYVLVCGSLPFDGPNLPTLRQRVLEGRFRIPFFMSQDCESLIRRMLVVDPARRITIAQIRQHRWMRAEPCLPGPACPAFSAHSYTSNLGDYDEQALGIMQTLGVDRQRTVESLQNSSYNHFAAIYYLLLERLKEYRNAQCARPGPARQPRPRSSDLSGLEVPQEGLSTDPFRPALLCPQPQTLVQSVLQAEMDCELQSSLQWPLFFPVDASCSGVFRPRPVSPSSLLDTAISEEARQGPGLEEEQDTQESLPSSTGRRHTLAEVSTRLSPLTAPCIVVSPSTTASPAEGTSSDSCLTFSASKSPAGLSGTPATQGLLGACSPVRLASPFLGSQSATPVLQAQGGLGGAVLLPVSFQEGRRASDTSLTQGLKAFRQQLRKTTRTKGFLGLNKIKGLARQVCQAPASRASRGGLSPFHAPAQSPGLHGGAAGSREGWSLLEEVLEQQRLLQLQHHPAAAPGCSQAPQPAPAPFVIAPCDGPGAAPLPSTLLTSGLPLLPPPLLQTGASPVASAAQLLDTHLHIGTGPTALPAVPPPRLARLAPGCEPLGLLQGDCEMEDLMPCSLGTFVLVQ
Briefly: ADP-Glo kinase assay, SIK1. The experiment is classed as biochemical. The essentials:
as §1

For experiment [3], the target named is T3, SIK2 (Homo sapiens, UniProt Q9H0K1).
T3 construct: purchased ThermoFisher Scientific PV4792
T3 sequence (Q9H0K1 whole entry): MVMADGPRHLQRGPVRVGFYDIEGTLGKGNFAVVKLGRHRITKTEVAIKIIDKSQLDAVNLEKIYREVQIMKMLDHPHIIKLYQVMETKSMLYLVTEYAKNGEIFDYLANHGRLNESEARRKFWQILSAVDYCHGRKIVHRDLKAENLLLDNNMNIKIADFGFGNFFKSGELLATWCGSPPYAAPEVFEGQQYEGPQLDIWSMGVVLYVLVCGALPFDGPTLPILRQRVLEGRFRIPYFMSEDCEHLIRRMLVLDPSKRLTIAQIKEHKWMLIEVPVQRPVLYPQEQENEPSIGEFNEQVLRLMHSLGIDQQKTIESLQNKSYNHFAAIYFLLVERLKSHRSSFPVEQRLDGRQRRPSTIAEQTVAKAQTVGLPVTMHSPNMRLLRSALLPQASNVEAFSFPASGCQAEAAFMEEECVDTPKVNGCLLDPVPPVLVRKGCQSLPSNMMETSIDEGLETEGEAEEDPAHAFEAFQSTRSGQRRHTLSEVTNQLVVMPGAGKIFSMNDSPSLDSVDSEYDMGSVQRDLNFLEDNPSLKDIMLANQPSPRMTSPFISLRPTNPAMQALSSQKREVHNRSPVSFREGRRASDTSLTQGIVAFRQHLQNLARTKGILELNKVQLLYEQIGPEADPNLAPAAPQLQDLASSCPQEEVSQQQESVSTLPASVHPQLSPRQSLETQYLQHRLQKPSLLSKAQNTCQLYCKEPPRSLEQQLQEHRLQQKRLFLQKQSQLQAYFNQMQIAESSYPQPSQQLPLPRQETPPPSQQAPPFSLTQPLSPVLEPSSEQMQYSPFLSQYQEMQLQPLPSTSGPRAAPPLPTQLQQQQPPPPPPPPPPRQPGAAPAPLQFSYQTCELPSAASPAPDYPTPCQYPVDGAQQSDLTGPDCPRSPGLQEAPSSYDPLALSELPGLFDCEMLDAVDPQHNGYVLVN
In words: ADP-Glo kinase assay, SIK2. It is filed as biochemical. The method, boiled down:
as §1

Experiment [4] relates to LPS-induced TNFα in monocytes. Briefly: Monocytes assay: LPS-triggered TNFα (ELISA). The following applies: Homo sapiens, Monocyte, LPS-triggered TNFα inhibition. The experiment is classed as cell-based, human. Here is the method:
This assay evaluates illustrative compounds of the invention for their inhibition of LPS-induced TNFα and LPS triggered IL-10 secretion in monocytes.
PBMCs are isolated from human blood samples (buffycoats). The buffy coat is aseptically transferred into a 50 mL Falcon tube, and diluted 1/2 in PBS. Falcon tubes are filled with 20 mL Lymphoprep™, on top of which 25 mL of the buffy coat is carefully added, tubes are centrifuged for 35 min at 400 g in temperature controlled centrifuge, without brake, at 25° C. PBMCs are aspirated from the white interface layer between sample and Lymphoprep™. PBMCs are washed five times in PBS.
PBMCs are centrifuged at 300×g for 10 min and resuspended at a density of 1.0*10^7 cells/80 μL Miltenyi buffer (PBS, pH 7.4, 1% FBS, 2 mM EDTA).
Starting from this point of the protocol all steps are performed on ice. 20 μL of CD14+ micro-beads are added per 1.0*10^7 cells, the tube is mixed and incubated for 15 min in the fridge at 4° C. Cell suspension volume is adjusted to total volume of 100 mL using Miltenyi buffer, mixed gently and subsequently centrifuged for 10 min at 300×g. Supernatant is discarded and cell pellet is resuspended in 12 mL of Miltenyi buffer.
Four LS columns are placed in the MACS Separator (magnet) from Miltenyi Biotec, and are prewet by rinsing with 3 mL of MACS buffer per column. Three mL of cell suspension is added onto the column (max 1*10^8 of labelled cells/column), and columns are subsequently washed 3 times with 3 mL of Miltenyi buffer.
The columns are removed from the magnets, and 5 mL of Miltenyi buffer are added to the column to flush out the CD14+ fraction by pushing the plunger into the column. The flushed fractions are collected in a fresh 50 mL Falcon and volume is adjusted to 30 mL using Miltenyi buffer, cells are centrifuged for 10 min at 300×g. The obtained cell pellet is resuspended in 10 mL RPMI w/o FBS, and cell density is determined using a hematologic analyser (Sysmex XS-500i).
A compound dilution plate is made in 100% DMSO by 3-fold dilution of 10 mM stock solution. An intermediate dilution plate (10× final concentration) is made by diluting the compound dilution plate 50-fold in RPMI medium.
10 μL of the 10× final concentration compound is added to the cells and incubated for 1 h at 37° C. before addition of trigger. No trigger conditions/trigger conditions are spiked with equal final DMSO concentrations of 0.2% DMSO. 10 μL of 10×LPS (final conc. 200 ng/mL) solution are added to all wells except for the ‘no trigger wells’ where 10 μL medium is added. Supernatant is collected after 4 h of LPS triggering.
The plate is then washed once with PBST (PBS+0.05% Tween20) and once with PBS followed by the addition of 100 μL of blocking buffer (1% Bovine Serum Albumin (BSA)-5% Sucrose) and plates are sealed and incubated for at least 4 h at RT. After washing the plate once with PBST and once with PBS, […]. Plates are washed twice with PBST, and once with PBS, after which 35 μL of the detection antibody is added (final concentration 0.25 μg/mL diluted in dilution buffer) and plates are incubated for at least 2 h at RT. Plates are washed twice with PBST, and once with PBS, whereafter 35 μL of Strep-HRP conjugate (0.5 μg/mL final concentration diluted in dilution buffer) is added. Plates are incubated in the dark, at RT for at least 45 min but no longer than 1 h. Plates are washed twice with PBST, and once with PBS. Thereafter, 50 μL of luminol substrate is added to each well (prepared according to manufacturer's instructions), and incubated for 5 min at RT protected from light.
To measure the inhibition of LPS induced TNFα, percentage inhibition (PIN) values are calculated for all concentrations tested, compared to controls.
On the technique in general: An ELISA detects its analyte on a solid surface through an enzyme-linked reagent.

T1 sequence (Q9Y2K2 59-365 limits assumed): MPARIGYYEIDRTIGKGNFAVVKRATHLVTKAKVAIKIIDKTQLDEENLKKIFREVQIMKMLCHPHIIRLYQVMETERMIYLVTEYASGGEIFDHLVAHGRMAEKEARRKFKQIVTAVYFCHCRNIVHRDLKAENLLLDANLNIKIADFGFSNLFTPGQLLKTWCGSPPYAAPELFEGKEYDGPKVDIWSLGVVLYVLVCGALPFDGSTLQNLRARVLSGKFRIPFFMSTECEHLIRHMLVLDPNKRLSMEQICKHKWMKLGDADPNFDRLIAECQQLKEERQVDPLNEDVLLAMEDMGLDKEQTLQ

With `COc1cc(-c2cnn3cc(C4(C#N)CCC4)ccc23)cc(OC(F)F)c1C(=O)N[C@@H]1C[C@@H]1F` [Cpd 250, 4-[6-(1-cyanocyclobutyl)pyrazolo[1,5-a]pyridin-3-yl]-2-(difluoromethoxy)-N-[(1R,2S)-2-fluorocyclopropyl]-6-methoxy-benzamide], the values for the half-inhibitory concentration (IC50) in experiment [1], in experiment [2] and in experiment [3] were 0.01 to 10 nM, greater than 500 nM and 100 to 500 nM, respectively. The half-maximal effective concentration (EC50) in experiment [4] is 100 to 1000 nM.
In the same order, the values of `COc1cc(-c2cnn3cc(C(C)(C)COCC(=O)N(C)C)ccc23)cc(OC(F)F)c1C(=O)N[C@@H]1C[C@@H]1F` [Cpd 251, 2-(difluoromethoxy)-4-[6-[2-[2-(dimethylamino)-2-oxo-ethoxy]-1,1-dimethyl-ethyl]pyrazolo[1,5-a]pyridin-3-yl]-N-[(1R,2S)-2-fluorocyclopropyl]-6-methoxy-benzamide] are 0.01 to 10 nM, greater than 500 nM, greater than 500 nM and 100 to 1000 nM.
The matching figures for `CNC(=O)COCC(C)(C)c1ccc2c(-c3cc(OC)c(C(=O)N[C@@H]4C[C@@H]4F)c(OC(F)F)c3)cnn2c1` [Cpd 253, 2-(difluoromethoxy)-4-[6-[1,1-dimethyl-2-[2-(methylamino)-2-oxo-ethoxy]ethyl]pyrazolo[1,5-a]pyridin-3-yl]-N-[(1R,2S)-2-fluorocyclopropyl]-6-methoxy-benzamide]: 0.01 to 10 nM, greater than 500 nM, greater than 500 nM and 100 to 1000 nM.
On to `COc1cc(-c2cnn3cc(C(C)(C)OCCN4CCOCC4)ccc23)cc(OC(F)F)c1C(=O)N[C@@H]1C[C@@H]1F` [Cpd 255, 2-(difluoromethoxy)-N-[(1R,2S)-2-fluorocyclopropyl]-6-methoxy-4-[6-[1-methyl-1-(2-morpholinoethoxy)ethyl]pyrazolo[1,5-a]pyridin-3-yl]benzamide], for which the results for the IC50 in experiment [1], in experiment [2] and in experiment [3] were 10 to 100 nM, greater than 500 nM and greater than 500 nM, respectively. For the same molecule, the EC50 in experiment [4] was 100 to 1000 nM.
For the molecule `COc1cc(-c2cnn3cc(C(C)(C)COCC4COC4)ccc23)cc(OC(F)F)c1C(=O)N[C@@H]1C[C@@H]1F` [Cpd 262, 2-(difluoromethoxy)-4-[6-[1,1-dimethyl-2-(oxetan-3-ylmethoxy)ethyl]pyrazolo[1,5-a]pyridin-3-yl]-N-[(1R,2S)-2-fluorocyclopropyl]-6-methoxy-benzamide], the figures for the IC50 in experiment [1], in experiment [2] and in experiment [3] were 0.01 to 10 nM, greater than 500 nM and greater than 500 nM, respectively. In experiment [4], this molecule came in with an EC50 of 100 to 1000 nM.
`COc1cc(-c2cnn3cc(C(C)(C)COC4COC4)ccc23)cc(OC(F)F)c1C(=O)N[C@@H]1C[C@@H]1F` [Cpd 265, 2-(difluoromethoxy)-4-[6-[1,1-dimethyl-2-(oxetan-3-yloxy)ethyl]pyrazolo[1,5-a]pyridin-3-yl]-N-[(1R,2S)-2-fluorocyclopropyl]-6-methoxy-benzamide]: the results for the IC50 in experiment [1], in experiment [2] and in experiment [3] were 10 to 100 nM, greater than 500 nM and greater than 500 nM, respectively. Further, the EC50 in experiment [4] lay in the range of 100 to 1000 nM.
With `COc1cc(-c2cnn3cc(C(C)(C)NCCO)ccc23)cc(OC(F)F)c1C(=O)N[C@@H]1C[C@@H]1F` [Cpd 268, 2-(difluoromethoxy)-N-[(1R,2S)-2-fluorocyclopropyl]-4-[6-[1-(2-hydroxyethylamino)-1-methyl-ethyl]pyrazolo[1,5-a]pyridin-3-yl]-6-methoxy-benzamide], the values for the IC50 in experiment [1], in experiment [2] and in experiment [3] were 10 to 100 nM, greater than 500 nM and greater than 500 nM, respectively. Besides, the EC50 in experiment [4] was in the range of 100 to 1000 nM.
Take `COC(=O)NC1(c2ccc3c(-c4cc(OC)c(C(=O)N[C@@H]5C[C@@H]5F)c(OC(F)F)c4)cnn3c2)CCC1` [Cpd 272, methyl N-[1-[3-[3-(difluoromethoxy)-4-[[(1R,2S)-2-fluorocyclopropyl]carbamoyl]-5-methoxy-phenyl]pyrazolo[1,5-a]pyridin-6-yl]cyclobutyl]carbamate]: the IC50 in experiment [1] was 10 to 100 nM; in experiment [2] it was greater than 500 nM; in experiment [3], greater than 500 nM. In experiment [4], this molecule returned an EC50 of 100 to 1000 nM.
`CNC(=O)C1(c2ccc3c(-c4cc(OC)c(C(=O)N[C@@H]5C[C@@H]5F)c(OC(F)F)c4)cnn3c2)CCC1` [Cpd 273, 2-(difluoromethoxy)-N-[(1R,2S)-2-fluorocyclopropyl]-6-methoxy-4-[6-[1-(methylcarbamoyl)cyclobutyl]pyrazolo[1,5-a]pyridin-3-yl]benzamide]: the IC50 was 10 to 100 nM in experiment [1], greater than 500 nM in experiment [2] and greater than 500 nM in experiment [3]. In addition, the EC50 in experiment [4] is 100 to 1000 nM.

In general, IC50 refers to the midpoint of a concentration-inhibition curve. As a reminder, the EC50 is the concentration giving half of the maximal effect.
